# Like-named read-outs stand apart in the source and are kept apart here. Marks after values point to notes of the source that are not given here.
# Columns and labels:
# [1] = test system: Primary rat cerebellar neurons; set-up: method as in ref (15) (a number printed in a supplementary file, which may have a reference list of its own: not looked up in the article's list); settings: drug 10^-4 µM, 30 min, ref (15), cited from earlier work
# [2] = test system: Liver tissue slices from male Wistar rats; set-up: method as in ref (5) (a number printed in a supplementary file, which may have a reference list of its own: not looked up in the article's list); settings: NH4Cl 20 mM, drug 5 µM, 60 min, ref (5); cited from earlier work
# [3] = test system: Brain slices from male Wistar rats; set-up: method as in ref (10) (a number printed in a supplementary file, which may have a reference list of its own: not looked up in the article's list); settings: drug 5 µM, 60 min, ref (10), cited from earlier work
# [4] = test system: isolated perfused lungs of rats; settings: depending on concentration, ref ([37],[43],[44]); cited from earlier work
# [5] = test system: Lysosomes isolated from male Wistar rat liver; set-up: method as in ref (16) (a number printed in a supplementary file, which may have a reference list of its own: not looked up in the article's list); settings: nigericin […], drug 1 µM, 20 min, ref (16), cited from earlier work
# [6] = test system: Liver tissue slices from male Wistar rats; set-up: method as in ref (8) (a number printed in a supplementary file, which may have a reference list of its own: not looked up in the article's list); settings: NH4Cl 20 mM, drug 5 µM, 60 min, ref (8); cited from earlier work
# [7] = test system: Lysosomes isolated from male Wistar rat liver; set-up: method as in ref (4) (a number printed in a supplementary file, which may have a reference list of its own: not looked up in the article's list); settings: 10 min, ref (4), cited from earlier work
# [8] = test system: Liver tissue slices from male Wistar rats; set-up: method as in ref (14) (a number printed in a supplementary file, which may have a reference list of its own: not looked up in the article's list); settings: monensin 10 µM, drug 5 µM, 60 min, ref (14); cited from earlier work
# [9] = test system: Lung tissue slices from male Wistar rats; set-up: method as in ref (8) (a number printed in a supplementary file, which may have a reference list of its own: not looked up in the article's list); settings: NH4Cl 20 mM, drug 5 µM, 60 min, ref (8); cited from earlier work
# [10] = test system: NR8383 cells
# [11] = test system: Lung tissue slices from male Wistar rats; set-up: method as in ref (9) (a number printed in a supplementary file, which may have a reference list of its own: not looked up in the article's list); settings: NH4Cl 20 mM, drug 5 µM, 60 min, ref (9); cited from earlier work
# [12] = test system: Lung granule fraction containing lysosomes from male Wistar rats; set-up: method as in ref (6) (a number printed in a supplementary file, which may have a reference list of its own: not looked up in the article's list); settings: NH4Cl 10 mM, drug 1 µM, 10 min; ref (6); cited from earlier work
# [13] = test system: Lung tissue slices from male Wistar rats; set-up: method as in ref (5) (a number printed in a supplementary file, which may have a reference list of its own: not looked up in the article's list); settings: NH4Cl 20 mM, drug 5 µM, 60 min, ref (5); cited from earlier work
# [14] = test system: Lung tissue slices from male Wistar rats; set-up: method as in ref (14) (a number printed in a supplementary file, which may have a reference list of its own: not looked up in the article's list); settings: monensin 10 µM, drug 5 µM, 60 min, ref (14); cited from earlier work
# [15] = test system: NR8383 cells; test: Accumulation (Kp) in NR8383 over a concentration range, two-site binding model; settings: apparent saturable uptake equilibrium constant, two-site binding model, control
# [16] = test system: Liver tissue slices from male Wistar rats; set-up: method as in ref (9) (a number printed in a supplementary file, which may have a reference list of its own: not looked up in the article's list); settings: NH4Cl 20 mM, drug 5 µM, 60 min, ref (9); cited from earlier work
# [17] = test system: NR8383 cell line; set-up: method as in ref (11) (a number printed in a supplementary file, which may have a reference list of its own: not looked up in the article's list); settings: NH4Cl 10 mM, drug 50 µM, 120 min; ref (11); cited from earlier work
compound,measurement,setting,value
CN(C)CCCN1c2ccccc2CCc2ccccc21 [Imipramine],Reduction of total uptake (%),[1]; monensin 10 µM,83%
same,Reduction of total uptake (%),[1]; monensin […],50%
same,Reduction in total uptake (%),[2],58%
same,Reduction in total uptake (%),[3]; NH4Cl 20 mM,41%
same,Reduction of total uptake (%),[3]; monensin 10 µM,37%
same,estimated Kp,[4],17–44
same,Reduction of total uptake (%),[5]; relative to control with ATP,99%
same,Reduction of total uptake (%),[5]; relative to control without ATP,93%
same,Reduction in total uptake (%),[6],57%
same,Reduction in total uptake (%),"[7]; NH4Cl 50 mM, drug 10^-4 µM",70^b %
same,Reduction of total uptake (%),"[7]; nigericin 50 µM, drug 0.001 µM",70^b %
same,Reduction of total uptake (%),[8],48%
same,Reduction in total uptake (%),[9],35%
same,cytotoxicity (LDH) compared to positive control,[10]; drug 50 μM,less than 1%
same,cytotoxicity (LDH) compared to positive control,[10]; drug 100 μM,less than 1%
same,Reduction in total uptake (%),[11],49%
same,Reduction in total uptake (%),[12],31%
same,Reduction in total uptake (%),[13],59%
same,Reduction of total uptake (%),[14],64%
same,KU1,[15],0.9 ± 0.3 µM
same,Reduction in total uptake (%),[16],62%
CC[C@H]1OC(=O)[C@H](C)C(=O)[C@H](C)[C@@H](O[C@@H]2O[C@H](C)C[C@H](N(C)C)[C@H]2O)[C@](C)(OC)C[C@@H](C)C(=O)[C@H](C)[C@H]2N(CCCCn3cnc(-c4cccnc4)c3)C(=O)O[C@]12C [Telithromycin],Reduction in total uptake (%),[17],80^b %

# From article PMC4628094, “In Vitro Assessment of Uptake and Lysosomal Sequestration of Respiratory Drugs in Alveolar Macrophage Cell Line NR8383” (Pharmaceutical Research, 2015)
